# In US20220257583A1, “Compositions and Methods for the Treatment of Intracranial Diseases” (Duke University, priority 2019, published 2022):
# Experiments:
# [1] = target: T1, β-arrestin 2 recruitment to activated β2V2R (Homo sapiens, UniProt P32121); experiment: DiscoveRx β-arrestin 2 recruitment assay (β2V2R, isoproterenol stimulation); type: cell-based; conditions: 25 minutes pretreatment
# T1 construct: host or cells: U2OS
# Description: FIG. 13: The first 40 initial hits from the screening of a structurally diverse, drug-like compound (DDLC) library containing more than 3,500 unique molecules with binding activity against purified β-arrestin 2 were evaluated for β-arrestin 2 recruitment by DiscoveRx assay. DiscoveRx cells expressing chimeric β2-adrenergic receptor (β2AR) with C-terminal tail from vasopressin receptor 2 (β2V2R) that is known to bind β-arrestin 2 very tightly were employed in this assay. The DiscoveRx cells were pretreated with candidate compounds at 50 μM or DMSO (control) for 25 minutes followed by stimulation with isoproterenol (10 nM). Compound B29 inhibits more than 75% of β-arrestin 2 activity (red-dashed rectangle) induced by isoproterenol which is a receptor agonist (red bar graph).
# FIG. 14: β-arrestin 2 recruitment to activated β2V2R. Testing B29 further, the DiscoveRx cells were pretreated with compound B29 at 1, 10, 50 μM or DMSO (control) for 25 minutes followed by stimulation with isoproterenol at various concentrations.
# FIG. 20 is a graphic representation showing the effect of putative βarr2 binding compounds (21 hits) on βarr2 recruitment to agonist activated GPCR. DiscoveRx-U2OS cells exogenously expressing βarr2 and β2V2R were treated with each putative βarrestin binding compound at 50 μM for 30 min and then stimulated with agonist isoproterenol (10 nM) to induce recruitment of βarr. […]
# S1P1 on T cells = experiment: S1P1 expression on T cells exposed to compound; type: cell-based
# [2] = test system: T-cells in IC CT2A-bearing mice; experiment: Bone marrow and blood T-cell counts in IC CT2A-bearing mice; type: in vivo; conditions: intraperitoneally every 3 days (Days 3-18), counts 18 days after implantation
# Description: FIGS. 6F-6J: FIG. 6F: Representative flow cytometry plot depicting the frequency of S1P1 on the surface of T-cells in the bone marrow of C57BL/6 mice and S1P1 KI bearing IC CT2A tumor. FIG. 6G: S1P1 KI mice were implanted with IC CT2A tumors and treated with anti (α)-PD-1, 4-1BB agonist, or the combination of both (n=8 per group). FIG. 6H and FIG. 6I: Bone marrow (FIG. 6H) and blood (FIG. 6I) T-cell counts in n=8 control mice and n=8 IC CT2A-bearing mice administered control treatment or G-CSF intraperitoneally every 3 days following tumor implantation (Days 3-18). Counts were assessed 18 days following tumor implantation. FIG. 6J: IC CT2A IC mice were administered G-CSF, 4-1BB agonist, or the combination regimen of both drugs (n=8 per group). […] Data in FIG. 6H and FIG. 6I are shown as mean±s.e.m. P values and were determined by two-tailed, unpaired Student's t-test. Survivals in FIG. 6G and FIG. 6J were assessed by two-tailed generalized Wilcoxon test. P values for overall comparison are depicted. […]
# Spleen, thymus, cervical lymph nodes, and long bones of the legs (femur and tibia) were collected at defined and/or humane endpoints, in accordance with protocol. […] Briefly, tissues were processed in RPMI, minced into single cell suspensions, cell-strained, counted, stained with antibodies, and analyzed via flow cytometry. […]
# intracranial CT2A glioma = experiment: Survival of mice bearing intracranial CT2A glioma; type: in vivo; conditions: IC CT2A mice, monotherapy
# Description: FIGS. 6A-6E: Hindering S1P1 internalization abrogates T-cell sequestration in bone marrow. FIG. 6A: Relative sequestration of adoptively transferred CFSE-labeled T-cells within the bone marrow of CT2A IC recipient mice at 2 h (left) or 24 h (right) after transfer. As indicated, transferred cells were splenocytes either from control C57BL/6 donors (control) or from S1P1 stabilized knock-in (S1P1 KI) donors (n=5 recipient mice per group). […] FIG. 6B: T-cell counts in the bone marrow of n=10 intracranial CT2A-bearing wild-type C57BL/6 or n=11 S1P1 KI mice. Counts were assessed at 18 d following tumor implantation and are shown relative to baseline counts inn=6 tumor-naïve control wild-type or n=6 tumor-naïve S1P1 KI mice. Cumulative data from three experiments are depicted in FIG. 6B and FIG. 6C, Intracranial CT2A tumors were harvested from n=6 wild-type C57BL/6 (WT) or n=6 S1P1 KI mice at 18 d following tumor implantation. TILs were assessed by flow cytometry and the number of total T-cells per gram of tumor quantified. FIG. 6D: The frequency of activated effector) (CD44^hiCD62L^lo) T-cells in intracranial CT2A tumors from the same n=6 wild-type C57BL/6 (WT) or n=6 S1P1 KI mice in FIG. 6C was also quantified. […] P values in and were determined by two-tailed, unpaired Student's t-test. Survival in FIG. 6E was assessed by two-tailed, generalized Wilcoxon test. […]
# T1 sequence (P32121 whole entry): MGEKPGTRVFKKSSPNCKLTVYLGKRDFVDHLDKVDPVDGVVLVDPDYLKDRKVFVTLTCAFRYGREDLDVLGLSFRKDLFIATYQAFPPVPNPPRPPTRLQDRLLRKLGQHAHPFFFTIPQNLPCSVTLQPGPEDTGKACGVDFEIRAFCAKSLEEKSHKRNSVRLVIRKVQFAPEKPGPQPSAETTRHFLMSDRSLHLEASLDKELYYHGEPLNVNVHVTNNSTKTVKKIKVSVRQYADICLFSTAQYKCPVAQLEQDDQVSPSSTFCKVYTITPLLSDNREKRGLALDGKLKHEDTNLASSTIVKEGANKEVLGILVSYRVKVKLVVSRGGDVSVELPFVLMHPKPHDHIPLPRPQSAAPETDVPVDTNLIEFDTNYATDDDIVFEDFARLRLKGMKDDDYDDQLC
molecule,measurement,setting,value
"COc1cc(Cc2nccc3cc(OC)c(OC)cc23)c(C(C)=O)cc1OC [Compound B29, 1-(2-((6,7-dimethoxyisoquinolin-1-yl)methyl)-4,5-dimethoxyphenyl)ethan-1-one]",inhibition at 50 µM,"[1]; compound 50 μM, isoproterenol 10 nM, read-out: inhibition of β-arrestin 2 activity induced by isoproterenol",> 75%
same,effect on isoproterenol titration curves of β-arrestin 2 recruitment,"[1]; compound at 1, 10, 50 μM, isoproterenol at various concentrations",shifts the potency of agonist rightward and decreases maximal response in a dose dependent fashion
"CN(C)c1n/c(=N/Cc2ccco2)ss1 [Compound C30, (Z)-3-((furan-2-ylmethyl)imino)-N,N-dimethyl-3H-1,2,4-dithiazol-5-amine]",S1P1 expression level on T cells,S1P1 on T cells; higher concentrations of compound,higher levels of S1P1 expression
same,ability to inhibit BARR,"S1P1 on T cells; initially screened compound, FIG. 12",inhibit BARR
"G-CSF: granulocyte colony-stimulating factor, administered intraperitoneally every 3 days (protein, UniProt P09919 31-207, looked up) Granulocyte …: TPLGPASSLPQSFLLKCLEQVRKIQGDGAALQEKLVSECATYKLCHPEELVLLGHSLGIPWAPLSSCPSQALQLAGCLSQLHSGLFLYQGLLQALEGISPELGPTLDTLQLDVADFATTIWQQMEELGMAPALQPTQGAMPAFASAFQRRAGGVLVASHLQSFLEVSYRVLRHLAQP",T-cell lymphopenia (blood T-cell counts),[2],reversed
same,bone marrow T-cell counts,[2],decreased
same,survival,intracranial CT2A glioma,did not to consistently impact survival
